Publication PMC4754628 (Scientific Reports, 2016)

Tests used:
Kv11.1-3.1 [1] = assay: Quantitative Western blot of Kv11.1-3.1 expression and trafficking (FG/CG bands) after overnight drug treatment; type: cell-based, human; details: for Trafficking Rescue?: Literature compounds screened for Kv11.1-3.1 trafficking rescue; for Trafficking Rescue? / Kv11.1-3.1 expression and trafficking rescue (FG band) by selective inhibitors of ALLN targets: Western blot; for Kv11.1-3.1 expression and trafficking rescue (FG band) by selective inhibitors of ALLN targets: Kv11.1-3.1 cells, single agents or cocktails
Protocol: HEK 293 cells were cultured at 37 °C (5% CO2) in Glutamax® Dulbecco’s modified Eagle’s Medium/Ham’s F-12 (Life Technologies, Grand Island, NY) supplemented with 1x Non-essential amino acids (Life Technologies, Grand Island, NY), 1x Penicillin/Streptomycin (Life Technologies, Grand Island, NY) and 10% fetal bovine serum (Sigma Aldrich, Saint Louis, MO). For pharmacological treatments, drugs were dissolved in DMSO and added to media at DMSO final concentrations < 0.2%. Cells were incubated in drug-containing media for 16–20 hours prior to assays.
Cells were washed with ice-cold PBS, harvested in ice-cold PBS, and pelleted by centrifugation at 500 g for 5 minutes. Cell pellets were resuspended with Radioimmunoprecipitation assay (RIPA) buffer (Sigma Aldrich, Saint Louis, MO) and rotated at 4 °C for 1 hour. Lysates were cleared by centrifugation at 16,000 g for 10 minutes and supernatants were analyzed for total protein concentration using a BCA kit (Pierce, Rockford, Illinois). […] Proteins were transferred onto 0.45 μm nitrocellulose membranes and incubated for 1hr in Odyssey® PBS blocking buffer (Li-Cor Biosciences, Lincoln, NE). Membranes were probed with anti-HA (1:5,000, GeneTex, Irvine, CA) and anti-NaK-ATPase (1:2,500, GeneTex, Irvine, CA) primary antibodies in Odyssey® PBS blocking buffer overnight at 4 °C. Anti-HA and anti-NaK-ATPase signals were detected using IRdye 800 donkey anti-rabbit (1:20,000, Li-Cor Biosciences, Lincoln, NE) and IRdye 680 donkey anti-mouse (1:20,000, Li-Cor Biosciences), respectively. The Li-Cor Odyssey® imaging system and software was used for antibody detection and quantification.

Kv11.1-1A [2] = assay: Co-immunoprecipitation of HA-tagged Kv11.1-1A probed for ubiquitin; type: cell-based, human; details: bortezomib 16 hours vs DMSO
Protocol: (§1) Dynabeads Protein G® (Life Technologies, Grand Island, NY) were prepared according to the manufacturer’s instructions and incubated with HA.11 anti-HA antibody (BioLegend, San Diego, CA) for 30 minutes and then fixed with BS[3] crosslinking reagent (ThermoFischer Scientific, Waltham, MA) to prevent antibody dissociation. Equal amounts of cell lysates from stably expressing Kv11.1 cell lines were prepared as before and then incubated with the prepared beads overnight at 4 °C. Beads were washed and proteins were eluted per the manufacturer’s instructions and visualized via SDS-PAGE. Membranes were probed with the antibodies described previously and anti-ubiquitin (1:1000, Abcam, Cambridge, MA). Antibody detection was performed as before.

Kv11.1-3.1 [3] = target: T1, Kv11.1-3.1 (Homo sapiens, UniProt Q12809)
Kv11.1-3.1 [4] = assay: Quantitative immunofluorescence / high content imaging of Kv11.1-3.1 (sub-cellular and cell surface); type: cell-based, human
Protocol: (§2) Stable HEK 293 cell lines expressing either the full-length (1A) or deletion Kv11.1 (3.1) channel variant were plated onto 24 well ibiTreat® plates (ibidi, Martinsried, Germany) and grown until 80–90% confluent. For sub-cellular co-localization studies, cells were fixed with 4% paraformaldehyde in PBS for 15 minutes. Cells were simultaneously permeabilized, blocked, and quenched for background fluorescence by incubation in a PBS solution containing 0.1% Triton X-100, 10% normal goat serum, and 0.75% glycine for 15 minutes. Cells were probed with primary antibodies: anti-extracellular loop hERG (1:1000, Sigma Aldrich, Saint Louis, MO), anti-calnexin (1:1000, Abcam, Cambridge, MA), anti-58K Golgi protein (1:200, Abcam), anti-20s proteasome β1 (1:200, Santa Cruz Biotechnology, Dallas, TX). […]. Cell surface labeling with anti-hERG antibody was performed as described above. Cell images were captured with the Operetta® high content imaging system and quantified with Columbus® image analysis suite (both PerkinElmer, Waltham, MA).
Electrophysisology data analysis was performed using Axograph X® (Axograph, Berkley, CA) All data is presented as mean ± SEM unless specified. Unpaired T-tests, ANOVA, and subsequent Bonferroni corrections were completed using Prism (Graphpad, La Jolla, CA). Microscopy data was analyzed with linear mixed models with fixed effects for the treatment variables with a random intercept by replicate/well – hERG and RFP levels were log2-transformed prior to analysis. P values < 0.05 were accepted as significant.

Kv11.1-3.1 [5] = target: T1, Kv11.1-3.1; details: treated Kv11.1-3.1 cells, E4031 or DMSO controls, n = 16
Kv11.1-1A [6] = assay: Quantitative immunofluorescence / high content imaging of Kv11.1-1A (sub-cellular and cell surface); type: cell-based, human
Protocol: as §2
Electrophysisology data analysis was performed using Axograph X® (Axograph, Berkley, CA) All data is presented as mean ± SEM unless specified. […] Microscopy data was analyzed with linear mixed models with fixed effects for the treatment variables with a random intercept by replicate/well – hERG and RFP levels were log2-transformed prior to analysis. […]

Kv11.1-3.1 [7] = assay: Co-immunoprecipitation of HA-tagged Kv11.1-3.1 probed for ubiquitin; type: cell-based, human; details: bortezomib 16 hours vs DMSO
Protocol: as §1

Kv11.1-1A [8] = details: 1A expressing cells
hERG LQT2 mutants = details: some LQT2 mutants; cited from earlier work

T1 sequence (Q12809 1-1063 isoform Q12809-7): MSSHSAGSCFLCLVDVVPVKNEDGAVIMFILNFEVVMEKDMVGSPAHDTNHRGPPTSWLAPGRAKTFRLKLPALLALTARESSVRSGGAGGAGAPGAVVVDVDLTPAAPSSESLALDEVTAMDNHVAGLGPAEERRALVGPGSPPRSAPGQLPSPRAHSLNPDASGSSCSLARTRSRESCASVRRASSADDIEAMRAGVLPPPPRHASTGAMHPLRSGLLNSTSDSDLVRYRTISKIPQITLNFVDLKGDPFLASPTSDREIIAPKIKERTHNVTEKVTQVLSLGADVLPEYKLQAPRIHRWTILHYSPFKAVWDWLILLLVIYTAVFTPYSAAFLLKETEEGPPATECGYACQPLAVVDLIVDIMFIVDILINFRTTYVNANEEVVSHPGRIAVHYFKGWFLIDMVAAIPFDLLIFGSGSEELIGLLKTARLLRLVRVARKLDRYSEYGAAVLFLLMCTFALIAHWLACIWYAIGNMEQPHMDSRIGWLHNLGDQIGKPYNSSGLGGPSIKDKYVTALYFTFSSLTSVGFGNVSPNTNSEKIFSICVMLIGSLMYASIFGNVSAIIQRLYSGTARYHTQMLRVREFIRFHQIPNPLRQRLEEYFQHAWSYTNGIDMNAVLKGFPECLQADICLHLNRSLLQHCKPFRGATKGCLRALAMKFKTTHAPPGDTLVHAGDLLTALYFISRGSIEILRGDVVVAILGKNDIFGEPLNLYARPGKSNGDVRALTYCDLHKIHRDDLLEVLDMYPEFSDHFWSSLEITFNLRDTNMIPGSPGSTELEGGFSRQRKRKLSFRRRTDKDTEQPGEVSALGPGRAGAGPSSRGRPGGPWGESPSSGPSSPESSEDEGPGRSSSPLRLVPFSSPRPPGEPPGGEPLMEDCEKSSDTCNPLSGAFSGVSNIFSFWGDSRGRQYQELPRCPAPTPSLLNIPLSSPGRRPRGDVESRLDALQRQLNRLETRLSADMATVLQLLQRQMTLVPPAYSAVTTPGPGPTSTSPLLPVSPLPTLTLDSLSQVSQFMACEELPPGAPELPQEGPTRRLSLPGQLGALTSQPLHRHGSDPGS

COc1cc(N)c(Cl)cc1C(=O)NC1CCN(CCCOc2ccc(F)cc2)CC1OC (stereo not shown) [Cisapride]
Trafficking Rescue? (Kv11.1-3.1 [1]): No

CCCNC(=O)[C@H]1O[C@@H]1C(=O)N[C@H](C(=O)N1CCC[C@H]1C(=O)O)[C@@H](C)CC [CA 078]
Kv11.1-3.1 expression and trafficking rescue (FG band) by selective inhibitors of ALLN targets (Kv11.1-3.1 [1]): only bortezomib was effective

O=C(O)c1ccccc1Nc1ccc(CCc2ccc(Cl)c(Cl)c2)cc1 [PD-118057]
Trafficking Rescue? (Kv11.1-3.1 [1]): No

C[N+](C)(C)CCOC(N)=O.[Cl-] [Carbamoylcholine Chloride]
Trafficking Rescue? (Kv11.1-3.1 [1]): No

CC(C)C[C@H](NC(=O)[C@H](Cc1ccccc1)NC(=O)c1cnccn1)B(O)O [bortezomib]
ubiquitin signal of immunoprecipitated 1A channels (Kv11.1-1A [2]): accumulation of ubiquitin signal
cell membrane capacitance normalized peak tail current (Kv11.1-3.1 [3]; bortezomib 10 nM treated Kv11.1-3.1 cells, n = 8): 75.93 ± 11.84 pA/pF
effect on Kv11.1-3.1 deactivation rate kinetics (τ deactivation) (Kv11.1-3.1 [3]; treated Kv11.1-3.1 cells vs controls, n = 3): no effect
elevation of steady-state Kv11.1-3.1 protein level (RFP-normalized fluorescence) (Kv11.1-3.1 [4]; Kv11.1-3.1 cells cultured with drug, n = 3): ~3 fold
Kv11.1-3.1 proteasome domain expression increase (Kv11.1-3.1 [4]; colocalization domain): not found to be significant
Kv11.1-3.1 expression in cytoplasm, nuclear regions, ER and Golgi (Kv11.1-3.1 [4]; subcellular segmentation and colocalization domains): significantly increased
factor of increase of surface Kv11.1-3.1/RFP ratio (Kv11.1-3.1 [4]; vs untreated Kv11.1-3.1): 2
signal to background ratio in thallium flux assay (Kv11.1-3.1 [5]): roughly 4 fold
elevation of Kv11.1 1A protein level (RFP-normalized fluorescence) (Kv11.1-1A [6]; Kv11.1-1A cells cultured with drug): modest elevation
ratio of surface Kv11.1-1A/RFP, slope m of linear regression (Kv11.1-1A [6]; single cells, untreated m = 0.34): 0.40
increase of overall channel expression (Total hERG/NaK ATPase) (Kv11.1-3.1 [1]; Kv11.1-3.1 HEK 293 cells, bortezomib 10 nM): 6 fold
trafficking efficiency (FG/Total hERG) (Kv11.1-3.1 [1]; Kv11.1-3.1 HEK 293 cells, bortezomib 10 nM, n = 4): 25 ± 2%
Kv11.1-3.1 expression and trafficking rescue (FG band) by selective inhibitors of ALLN targets (Kv11.1-3.1 [1]): effective
ubiquitin signal of immunoprecipitated Kv11.1-3.1 channels (Kv11.1-3.1 [7]): decrease in ubiquitin signal
Kv11.1-1A band changes on Western blot (Kv11.1-1A [8]): only increasing 1A CG expression

CC(=O)N[C@@H](CSC(=O)[C@]1([C@@H](O)C(C)C)NC(=O)[C@H](C)[C@@H]1O)C(=O)O [lactacystin]
hERG expression in LQT2 mutants (hERG LQT2 mutants): increase hERG expression
trafficking rescue in LQT2 mutants (hERG LQT2 mutants): trafficking was unable to be rescued

COC(=O)Nc1nc2ccc(C(=O)c3cccs3)cc2[nH]1 [Nocodazole]
Trafficking Rescue? (Kv11.1-3.1 [1]): No

O=C(O)/C(S)=C/c1ccc(I)cc1 [PD 150606]
Kv11.1-3.1 expression and trafficking rescue (FG band) by selective inhibitors of ALLN targets (Kv11.1-3.1 [1]): only bortezomib was effective

N#Cc1ccc(COC[C@H]2O[C@@H](n3c(NCc4ccc(Cl)c(Cl)c4)nc4c(N)ncnc43)[C@H](O)[C@@H]2O)cc1 [VER-155008]
Trafficking Rescue? (Kv11.1-3.1 [1]): No

CCc1ccccc1NC(=O)CSC(=O)NNC(=O)[C@H](Cc1c[nH]c2ccccc12)NC(=O)OC(C)(C)C [SID 26681509]
Kv11.1-3.1 expression and trafficking rescue (FG band) by selective inhibitors of ALLN targets (Kv11.1-3.1 [1]): only bortezomib was effective
